Consider 51 substances from patent publication US20240207421A1, “NERVE TARGETING PEPTIDES AND METHODS OF USE” (ALUME BIOSCIENCES, INC., priority 2020, published 2024).

For test [1], the system named is excised human nerve tissue (or nerve extracts). The experiment in a line: Phage display library screening (Example 2), NEB tissue-binding peptides: nerve tissue and nerve extracts versus muscle. The following applies: unique sequence count, peptides not binding muscle extracts; for Count Excised Nerve: tissue target: excised nerve; for Count Nerve Extract: tissue target: nerve extract; for Count Neuron: tissue target: neuron. The method, then:
Phage display library screens were used to identify peptides that bind to target proteins (including specific laminin trimers) that are expressed in human nerves, as described in Table 3. These screens were also carried out to identify peptides that could bind selectively to nerves versus muscle. Such peptides could therefore be useful for systemic in-vivo labeling of nerves during fluorescence assisted surgery. Specifically, m 13 phage libraries expressing 7 or 12 random amino acid peptides, or a cyclic peptide CX7C, on the N-terminus of the minor coat protein pIII (New England Biolabs; NEB) were processed through multiple rounds of selection for binding to target proteins expressed in nerves, or to excised human nerves, nerve extracts, or muscle, as described further below.
To identify peptides selective for nerves versus muscle, phage from the same libraries used for specific target proteins were used to screen against excised human nerve tissue (or nerve extracts) and human muscle tissue.
Excised Nerve Tissue: Phage were processed through multiple cycles of selection, with representative phage being isolated and sequenced after each selection cycle. Specifically, for selection using human nerve tissue, a sample of […] tissue (2 mm by 2 mm) was washed prior to mixing and incubation with a phage library. After incubation, the mixture (containing mostly intact nerves with phage particles that had variable affinity for nerves) was centrifuged and the nerve pellet washed multiple times with PBS to remove phage with little or no affinity for nerve tissue. The pellet was homogenized and plated for titering and reamplification. Phage that were bound at each round were sequenced. NextGen sequencing of pools after 2, 3 and 4 rounds of selection were used to isolate candidate sequences that were further analyzed using bioinformatics.
Nerve Extracts: Phage libraries were incubated for up to 24 hours at 4° C. in 96 well plates that had been coated with a human nerve extract. Plates were then washed with PBS and phage were eluted using 0.2M glycine pH 2.0. Phage supernatants where then neutralized with Tris pH 9.0 prior to plating on TG1 bacteria and LB agar plates. Colonies were counted to determine titer followed by DNA preparation of pools of phage and NextGen sequencing. After rounds of selection, phage were pooled and amplified for iterative selection. Phage that eluted by 0.2M glycine pH 2.0 (the nerve binders) at each round were sequenced. NextGen sequencing of pools after 2, 3 and 4 rounds of selection were used to isolate candidate sequences that were further analyzed using bioinformatics.
Muscle Tissue: Phage were processed through multiple cycles of selection, with representative phage being isolated and sequenced after each selection cycle. Specifically, for selection using human skeletal muscle tissue, a sample of skeletal muscle tissue (2 mm by 2 mm) was washed prior to mixing and incubation with a phage library. After incubation, the mixture (containing mostly intact muscle with phage particles that had variable affinity for muscle) was centrifuged and the muscle pellet washed multiple times with PBS to remove phage with little or no affinity for muscle tissue. The pellet was then homogenized and plated for titering and reamplification. Phage that were bound at each round were sequenced. NextGen sequencing of pools after 2, 3 and 4 rounds of selection were used to isolate candidate sequences that were further analyzed using bioinformatics.
For all NEB sequence datasets, a python script was used to translate, trim, and filter the peptide sequences (see details above). A python script was used to group peptides from different assays according to tissue target (muscle, nerve, neuron, or nerve extract) and combine the unique sequence counts for each peptide. […]

The test system of the next test is Laminin 421/521. The experiment in a line: Phage display library screening (Example 2), NEB laminin-binding peptides. More on the design: species or system human. Particulars: Laminin 421/521, not 211 and 411; combined unique sequence count, Python/R script analysis. The method in brief: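 M13 phage libraries (7- or 12-mer random or cyclic CX7C peptides on pIII) panned up to 4 rounds against plate-coated laminins LN211, LN411, LN421, LN521, 24 h at 4 °C; elution with 0.2M glycine pH 2.0. NextGen sequencing of pools after rounds 2–4; peptides binding 421/521 but not 211/411 identified.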

For the substance AFRFEFQVPDSH, in test [1], the “Count Excised Nerve” value was 7, the “Count Nerve Extract” value came to 18 and the “Count Neuron” value amounted to 11.
Taken in the same sequence, the figures for AIMSYNSPWIQG were 9, 17 and 8.
On to ALNHNGPVKTGL, for which, in test [1], the “Count Excised Nerve” value is on record as 10, the “Count Nerve Extract” value stood at 16 and the “Count Neuron” value is 6.
With DASQYPLVSGLW, in test [1], the “Count Excised Nerve” value came to 10, the “Count Nerve Extract” value came out at 16 and the “Count Neuron” value is 6.
Take DELVGGAPWYKS: in test [1], the “Count Excised Nerve” value was determined as 20, the “Count Nerve Extract” value is on record as 27 and the “Count Neuron” value was 7.
On the same counts, the results for DRGLTILTDDLR are 27, 34 and 7.
With DVMQMFHQVHFY, in test [1], the “Count Excised Nerve” value was determined as 10, the “Count Nerve Extract” value was 17 and the “Count Neuron” value came to 7.
Taken in the same sequence, the figures for EESNAKLELLSR were 12, 26 and 14.
Consider EFARFRVFGVAE, for which, in test [1], the “Count Excised Nerve” value stood at 22, the “Count Nerve Extract” value is given as 30 and the “Count Neuron” value came out at 8.
On to EIIVMSGSNVTN, for which, in test [1], the “Count Excised Nerve” value was 9, the “Count Nerve Extract” value was 15 and the “Count Neuron” value is 6.
For the substance EMVPMKFLMMAK, in test [1], the “Count Excised Nerve” value came out at 8, the “Count Nerve Extract” value is recorded as 14 and the “Count Neuron” value amounted to 6.
With EPWQSRDKVIEE, in test [1], the “Count Excised Nerve” value came to 8, the “Count Nerve Extract” value is recorded as 16 and the “Count Neuron” value came to 8.
FDPLSRNVPHKT: in test [1], the “Count Excised Nerve” value amounted to 16, the “Count Nerve Extract” value is reported as 22 and the “Count Neuron” value is recorded as 6.
As to GHAHSLTQNPLF, in test [1], the “Count Excised Nerve” value stood at 10, the “Count Nerve Extract” value was 18 and the “Count Neuron” value is reported as 8.
Take GLLREPDELMFL: in test [1], the “Count Excised Nerve” value is listed as 18, the “Count Nerve Extract” value was 27 and the “Count Neuron” value turned out to be 9.
On to GLTIMSSRHSLQ, for which, in test [1], the “Count Excised Nerve” value was determined as 12, the “Count Nerve Extract” value stood at 18 and the “Count Neuron” value came to 6.
For the substance GLWDGKGRIVEV, in test [1], the “Count Excised Nerve” value is 9, the “Count Nerve Extract” value is 16 and the “Count Neuron” value was found to be 7.
Taken in the same sequence, the figures for GMRTGDDSPKYP were 14, 21 and 7.
On the same counts, the results for GTALNLQKDINK are 6, 12 and 6.
For GTVSYMVKMDNN, in test [1], the “Count Excised Nerve” value is 9, the “Count Nerve Extract” value is given as 16 and the “Count Neuron” value turned out to be 7.
In the case of GWANSITYRNLY, in test [1], the “Count Excised Nerve” value was 17, the “Count Nerve Extract” value turned out to be 26 and the “Count Neuron” value is reported as 9.
Take GWNEATNSARHT: in test [1], the “Count Excised Nerve” value was 26, the “Count Nerve Extract” value was 32 and the “Count Neuron” value stood at 6.
Regarding GWQMFPPMQNTR, in test [1], the “Count Excised Nerve” value is recorded as 10, the “Count Nerve Extract” value worked out at 50 and the “Count Neuron” value is on record as 40.
In the case of HGIVFSKRPFSN, in test [1], the “Count Excised Nerve” value came out at 12, the “Count Nerve Extract” value was determined as 23 and the “Count Neuron” value is reported as 11.
Consider HSGAYTIQASYK, for which, in test [1], the “Count Excised Nerve” value was found to be 9, the “Count Nerve Extract” value came to 15 and the “Count Neuron” value was determined as 6.
For IPGQTPRMPHSK, in test [1], the “Count Excised Nerve” value is on record as 8, the “Count Nerve Extract” value worked out at 21 and the “Count Neuron” value stood at 13.
For the substance KTTSMTALTMGL, in test [1], the “Count Excised Nerve” value is given as 9, the “Count Nerve Extract” value amounted to 21 and the “Count Neuron” value is given as 12.
For LQTHSITYRHER, in test [1], the “Count Excised Nerve” value is given as 7, the “Count Nerve Extract” value was found to be 19 and the “Count Neuron” value turned out to be 12.
In the case of MLKMERPGRMAY, in test [1], the “Count Excised Nerve” value stood at 9, the “Count Nerve Extract” value is recorded as 15 and the “Count Neuron” value came to 6.
On to MLRHVDLTEPNA, for which, in test [1], the “Count Excised Nerve” value came out at 7, the “Count Nerve Extract” value was determined as 13 and the “Count Neuron” value is on record as 6.
As for NAVHRPDLNLLA, in test [1], the “Count Excised Nerve” value is given as 15, the “Count Nerve Extract” value worked out at 22 and the “Count Neuron” value is 7.
Turning to NGMNWLQVHQLS, in test [1], the “Count Excised Nerve” value came out at 12, the “Count Nerve Extract” value was determined as 18 and the “Count Neuron” value is 6.
Taken in the same sequence, the figures for NRIGHGTATGTL were 22, 28 and 6.
On the same counts, the results for NTEYSRYTSIWK are 8, 14 and 6.
On the same counts, the results for NYAVGDRITKNI are 18, 25 and 7.
Turning to QANLYYWDPSDL, in test [1], the “Count Excised Nerve” value came out at 8, the “Count Nerve Extract” value is 17 and the “Count Neuron” value is 9.
Taken in the same sequence, the figures for QNIVENFIDNER were 20, 27 and 7.
Consider QRATNDILIRGW, for which, in test [1], the “Count Excised Nerve” value is given as 9, the “Count Nerve Extract” value stood at 17 and the “Count Neuron” value came out at 8.
For the substance QSTLGVHMLRVS, in test [1], the “Count Excised Nerve” value amounted to 6, the “Count Nerve Extract” value was 13 and the “Count Neuron” value turned out to be 7.
Turning to RTVITNEMLLLV, in test [1], the “Count Excised Nerve” value was determined as 7, the “Count Nerve Extract” value was determined as 13 and the “Count Neuron” value is recorded as 6.
Taken in the same sequence, the figures for SDHTFKRVMFRW were 8, 15 and 7.
For SEPIEKGSRTIV, in test [1], the “Count Excised Nerve” value was determined as 7, the “Count Nerve Extract” value was 13 and the “Count Neuron” value is 6.
Taken in the same sequence, the figures for SGEYNLIKPNLL were 20, 27 and 7.
Turning to SGWHLVMSMSIG, in test [1], the “Count Excised Nerve” value was found to be 6, the “Count Nerve Extract” value worked out at 12 and the “Count Neuron” value amounted to 6.
For SLGSSFVQGGEL, in test [1], the “Count Excised Nerve” value worked out at 12, the “Count Nerve Extract” value is given as 19 and the “Count Neuron” value is on record as 7.
For the substance SLQLWNSEKVTT, in test [1], the “Count Excised Nerve” value amounted to 10, the “Count Nerve Extract” value worked out at 16 and the “Count Neuron” value was determined as 6.
On the same counts, the results for SPMANVWFNRLS are 7, 17 and 10.
SSLYMNGWSRDQ: in test [1], the “Count Excised Nerve” value was 23, the “Count Nerve Extract” value was determined as 49 and the “Count Neuron” value amounted to 26.
For TDNGSFLGKLTS, in test [1], the “Count Excised Nerve” value is listed as 7, the “Count Nerve Extract” value was determined as 14 and the “Count Neuron” value is given as 7.
For TEWMVRASSIGE, in test [1], the “Count Excised Nerve” value worked out at 6, the “Count Nerve Extract” value is on record as 14 and the “Count Neuron” value is on record as 8.
Take “YTPRNQL (Laminin 421/521-binding peptide)”: the Count with Laminin 421/521 was found to be 55.
